Measurements published in US20090181934A1, “Organic Compounds” (Novartis AG, priority 2007, published 2009).
Structures can show the parent of a compound that is named as a salt.

Biological target: adenosine A2A receptor (Homo sapiens, UniProt P29274)
Experiment: adenosine A2A receptor agonist assay (method of Murphree et al)
Type: binding
Details: method of L. J. Murphree et al, Molecular Pharmacology 61, 455-462 (2002)
From the text: The compounds of (A) activate the adenosine […] receptor, i.e. they act as A2A receptor agonists.

adenosine A2A receptor, sequence (P29274 whole entry): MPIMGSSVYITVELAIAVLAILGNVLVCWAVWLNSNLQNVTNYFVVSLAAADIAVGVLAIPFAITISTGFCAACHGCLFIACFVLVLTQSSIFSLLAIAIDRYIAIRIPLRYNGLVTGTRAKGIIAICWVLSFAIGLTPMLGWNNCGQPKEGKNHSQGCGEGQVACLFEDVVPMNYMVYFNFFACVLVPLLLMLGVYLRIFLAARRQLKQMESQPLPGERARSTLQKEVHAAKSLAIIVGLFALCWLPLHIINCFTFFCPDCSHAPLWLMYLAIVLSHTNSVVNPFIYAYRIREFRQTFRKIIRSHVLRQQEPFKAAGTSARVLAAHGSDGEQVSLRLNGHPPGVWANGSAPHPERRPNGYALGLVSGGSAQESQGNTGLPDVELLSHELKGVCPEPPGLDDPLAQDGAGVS

- Ki: 4 nM
SMILES: COC(=O)N[C@H]1C[C@@H](n2cnc3c(NCC(c4ccccc4)c4ccccc4)nc(N4CC[C@@H](NC(=O)Nc5cccnc5)C4)nc32)[C@H](O)[C@@H]1O [Example 1, ((1S,2R,3S,4R)-4-{6-(2,2-Diphenyl-ethylamino)-2-[(R)-3-(3-pyridin-3-yl-ureido)-pyrrolidin-1-yl]-purin-9-yl}-2,3-dihydroxy-cyclopentyl)-carbamic acid methyl ester hydrochloride]
